In patent US8334316B2, “Substituted organosulfur compounds and methods of using thereof” (ACEA Biosciences, Inc., priority 2004, dated 2012):
Where “and” joins values, the source holds several entries; their conditions need not be identical. Identical values can stand only once.

How the values were obtained:
mouse Lewis lung cancer = assay: In vivo antitumor efficacy, mouse Lewis lung cancer model, Example 2 (DBTS, CTX, Taxol reference)
[1] = system: A549 human lung cancer cells; assay: Cell-cycle distribution by propidium iodide flow cytometry in A549 cells; assay type: cell-based; details: 24 hrs, vs DMSO
Procedure: Another in vitro assay may be used to evaluate the effect of compounds in arresting the cell cycle progression. More specifically, a test compound is added to cells of certain cell lines in a concentration-dependent manner. After cells are incubated for certain specific length of time, cells are stained using propidium iodide and are used for flow cytometric assessment. The cell populations of sub-G0/G1, G0/G1, S and G2/M phases are determined. All above in vitro assays are cell-based, single-time point (or multiple-time points using multiple plates) end-point assays.
Microtubules are extremely important in the process of mitosis, during which the duplicated chromosomes of a cell are separated into two identical sets before cleavage of the cell into two daughter cells. […] As consequence, cells will be arrested at G2/M phase.
In briefly, A549 cells were seeded at a density of 500,000 cells in 60 mm tissue culture dishes. Approximately 18 hours later the cells were treated with the indicated concentrations of anti-mitotic compounds and allowed to further incubate for 24 hours. The cells were washed in PBS, trypsinized, counted and fixed in ice-cold 70% methanol and stored at 4° C. The cells were washed with PBS, stained with propidium iodide and kept on ice until flow cytometry analysis.

mouse sarcoma S180 = assay: In vivo antitumor efficacy, mouse sarcoma S180 model (subcutaneously transplanted), Example 1
[2] = system: human cancer cell lines (H460, MV522, MCF7, A549, PC3, A431, HT1080, MDA-231, HT29, HCC2998, OVCAR4, A2780); assay: RT-CES system, panel of human cancer cell lines treated with dibenzyl trisulfide; assay type: cell-based; details: 1.5625-100 μM; FIGS. 1-5, 6A, 7-12
Source text: The RT-CES system comprises three components, an electronic sensor analyzer, a device station and 16× or 96× microtiter plate devices. Microelectrode sensor array was fabricated on glass slides with lithographical microfabrication methods and the electrode-containing slides are assembled to plastic trays to form electrode-containing wells. Each 16× (or 96×) microtiter plate device used in RT-CES system comprises up to 16 (or 96) such electrode-containing wells. The device station receives the 16× or 96× microtiter plate devices and is capable of electronically switching any one of the wells to the sensor analyzer for impedance measurement. […] Under the RT-CES software control, the sensor analyzer can automatically select wells to be measured and continuously conduct impedance measurements. The impedance data from the analyzer is transferred to a computer, analyzed and processed by the integrated software.
To quantify cell status based on the measured cell-electrode impedance, a parameter termed Cell Index is derived, according to
[formula] where Rb(f) and Rcell(f) are the frequency dependent electrode resistances (a component of impedance) without cells or with cell present, respectively. N is the number of the frequency points at which the impedance is measured. Thus, Cell Index is a quantitative measure of the status of the cells in an electrode-containing well. […]

## CC(=O)O[C@H]1C(=O)[C@@]2(C)[C@H]([C@H](OC(=O)c3ccccc3)[C@]3(O)C[C@H](OC(=O)[C@H](O)[C@@H](NC(=O)c4ccccc4)c4ccccc4)C(C)=C1C3(C)C)[C@]1(OC(C)=O)CO[C@@H]1C[C@@H]2O [Taxol, paclitaxel, reference compound]
Mouse Lewis lung cancer; 7.5 mg/kg/d iv x5 qd
  Tumor weight: 1.98 ± 0.14 g
Mouse Lewis lung cancer; 7.5 mg/kg/d iv x5 qd, vs normal saline control
  tumor inhibition rate %: 30.28%
Mouse Lewis lung cancer; 10 mg/kg/d iv x5 qd
  Tumor weight: 1.79 ± 0.09 g
Mouse Lewis lung cancer; 10 mg/kg/d iv x5 qd, vs normal saline control
  tumor inhibition rate %: 36.97%
Mouse Lewis lung cancer; 15 mg/kg/d iv x5 qd
  Tumor weight: 1.45 ± 0.14 g
Mouse Lewis lung cancer; 15 mg/kg/d iv x5 qd, vs normal saline control
  tumor inhibition rate %: 48.94%
[1]; 7.8 nM
  Cell population at G2/M phase: increased significantly

## Fc1ccc(CSSSCc2ccc(F)cc2)cc1 [ACEA100108, Di(p-fluorobenzyl)trisulfide]
[1]; 25 uM
  Cell population at G2/M phase: increased significantly

## c1ccc(CSSSCc2ccccc2)cc1 [DBTS, Dibenzyl trisulfide]
Mouse sarcoma S180; 12.5 mg/kg/d iv x7 qd
  Animal weight (g) end: 24.5 g
Mouse sarcoma S180; 12.5 mg/kg/d iv x7 qd, vs 10% solvent control
  Inhibition rate (%): 30.46%
Mouse sarcoma S180; 12.5 mg/kg/d iv x7 qd, vs normal saline control
  Inhibition rate (%): 48.69%
Mouse sarcoma S180; 25 mg/kg/d iv x7 qd, vs 10% solvent control
  Inhibition rate (%): 38.58%
Mouse sarcoma S180; 25 mg/kg/d iv x7 qd, vs normal saline control
  Inhibition rate (%): 54.68%
Mouse sarcoma S180; 50 mg/kg/d iv x7 qd, vs 10% solvent control
  Inhibition rate (%): 50.25%
Mouse sarcoma S180; 50 mg/kg/d iv x7 qd, vs normal saline control
  Inhibition rate (%): 63.30% and 65%
Mouse Lewis lung cancer; 12.5 mg/kg/d iv x10 qd
  Tumor weight: 1.59 ± 0.16 g
Mouse Lewis lung cancer; 12.5 mg/kg/d iv x10 qd, vs 5% solvent control
  tumor inhibition rate %: 35.10%
Mouse Lewis lung cancer; 12.5 mg/kg/d iv x10 qd, vs normal saline control
  tumor inhibition rate %: 43.10% and 43.01%
Mouse Lewis lung cancer; 25 mg/kg/d iv x10 qd
  Tumor weight: 1.35 ± 0.10 g
Mouse Lewis lung cancer; 25 mg/kg/d iv x10 qd, vs 5% solvent control
  tumor inhibition rate %: 46.94%
Mouse Lewis lung cancer; 25 mg/kg/d iv x10 qd, vs normal saline control
  tumor inhibition rate %: 51.61%
Mouse Lewis lung cancer; 50 mg/kg/d iv x10 qd
  Tumor weight: 0.955 ± 0.20 g
Mouse Lewis lung cancer; 50 mg/kg/d iv x10 qd, vs 5% solvent control
  tumor inhibition rate %: 61.02%
Mouse Lewis lung cancer; 50 mg/kg/d iv x10 qd, vs normal saline control
  tumor inhibition rate %: 65.77% and 65%
[2]
  Effect on proliferation of cancer cell lines (time-dependent cell index): exhibited inhibitory effect on the proliferation of a number of cancer cell lines
